Assay: in vitro
Conditions: human, hela cells, % viability

| Compound | viability at 28.5 h, 10 µM [%] |
| --- | --- |
| O=S(=O)(NCc1cccc(F)c1F)c1cc2c(N3CCNCC3)nccc2s1 [CBK047588C] | 103 |
| COc1ccc(Cn2nc(NS(=O)(=O)c3cn(C)cn3)c3ccccc32)cc1 [CBK048143] | 87.7 |
| Cc1nn(C)c(Cl)c1S(=O)(=O)Nc1nn(Cc2ccc(C#N)cc2)c2ccccc12 [CBK048185] | 111 |
| Cc1ccc(Cn2nc(NC(=O)c3ccccc3)c3ccccc32)cc1 [CBK048213] | 97.5 |
| Cc1ccc(Cn2nc(NC(=O)c3cccn3C)c3ccccc32)cc1 [CBK048214] | 97.4 |
| Cc1ccc(Cn2nc(NC(=O)C3CCCCC3)c3ccccc32)cc1 [CBK048217] | 96.5 |
| O=C(Nc1nn(Cc2ccc(Oc3ccccc3)cc2)c2ccccc12)c1ccno1 [CBK048224] | 97.8 |
| CC(=O)Nc1nn(Cc2cc3c(cc2Cl)OCO3)c2ccccc12 [CBK048251] | 96.5 |
| N#Cc1ccc(Cn2nc(NC(=O)c3ccco3)c3ccccc32)cc1 [CBK048260] | 91.8 |
| COc1cccc(C(=O)Nc2nn(Cc3ccc(C(F)(F)F)cc3)c3ccccc23)c1 [CBK048273] | 83.9 |
| COc1ccc(Cn2nc(NC(=O)OC(C)C)c3ccccc32)cc1 [CBK048404] | 106 |
| COCC(C)NC(=O)c1nn(-c2nc3ccccc3s2)c2ccccc12 (centres unmarked) [CBK048488] | 92.6 |
| COc1ccc(NC(=O)c2nn(-c3nc4ccccc4o3)c3ccccc23)cc1 [CBK048492] | 93.8 |
| Cn1c(-c2ccc(CN3CCCC3)cc2)cc2onc(-c3cccnc3)c2c1=O [CBK048501C] | 99.1 |
| O=C(NOCc1ccccc1)c1nn(-c2ncccn2)c2ccccc12 [CBK048503] | 93.1 |
| Cc1cc(NC(=O)c2nn(-c3ncccn3)c3ccccc23)n(C)n1 [CBK048505] | 92.3 |
| COc1ccc2nc(-n3nc(C(=O)NCc4ccncc4)c4ccccc43)sc2c1 [CBK048521] | 94.9 |
| CS(=O)(=O)Nc1nn(-c2ccc(NC(=O)c3ccno3)cc2)c2ccccc12 [CBK048591] | 99.5 |
| O=c1[nH]c2cccc(O)c2o1 [CBK048613] | 90.9 |
| Cc1ccc2c(c1)c(NS(C)(=O)=O)nn2Cc1ccc(C#N)cc1 [CBK048643] | 94.2 |
| Cc1ccc2c(c1)c(NC(=O)OC(C)C)nn2Cc1cc2c(cc1Cl)OCO2 [CBK048652] | 99.9 |
| C#CCNC(=O)c1nn(Cc2ccc(CN3C(=O)CCC3=O)cc2)c2ccc(OC)cc12 [CBK048668] | 86.2 |
| CS(=O)(=O)Nc1nccnc1N1CCN(C(=O)c2ccno2)CC1 [CBK048861] | 107 |
| CNC(=S)N1CCN(c2nccnc2NS(=O)(=O)C2CC2)CC1 [CBK048905] | 96.2 |
| COc1ccc(OC)c(-c2cc(C(=O)O)c(C)o2)c1 [CBK049343] | 97.9 |

| Compound | viability at 28.5 h, 10 µM [%] |
| --- | --- |
| COCc1ccc(-c2nccnc2NS(=O)(=O)c2c(C)noc2C)cc1 [CBK049656] | 122 |
| COc1ccccc1CN(CC1CCNCC1)C(=O)Nc1c(C)noc1C [CBK049739] | 94.7 |
| CCOC(=O)c1ccccc1NC(=O)N(Cc1ccc2ccccc2c1)CC1CCNCC1 [CBK049769] | 98.3 |
| Cc1ccc(NC(=O)N(Cc2ccc3ccccc3c2)CC2CCNCC2)cc1[N+](=O)[O-] [CBK049771] | 100 |
| O=C(NCCc1ccccc1)N(Cc1ccc(-c2ccccc2)cc1)CC1CCNCC1 [CBK049792] | 106 |
| COc1ccc(F)c(CN(CC2CCNCC2)C(=O)Nc2c(F)cccc2F)c1 [CBK049804] | 110 |
| COc1ccc(F)c(CN(CC2CCNCC2)C(=O)Nc2ccccc2C(F)(F)F)c1 [CBK049805] | 96.9 |
| COc1ccc(F)c(CN(CC2CCNCC2)C(=O)Nc2c(C)noc2C)c1 [CBK049811] | 112 |
| O=C(O)c1[nH]c2ccccc2c1NS(=O)(=O)c1ccc(Br)cc1 [CBK049878] | 61.1 |
| Cc1ccc(S(=O)(=O)Nc2c(C(=O)O)[nH]c3ccccc23)cc1 [CBK049880] | 72.6 |
| O=C(O)c1[nH]c2ccccc2c1NS(=O)(=O)c1cc(F)c(Br)cc1F [CBK049885] | 62.8 |
| O=C(O)c1[nH]c2ccccc2c1NS(=O)(=O)c1cc(Cl)sc1Cl [CBK049886] | 67.5 |
| COc1ccc(Br)cc1S(=O)(=O)Nc1c(C(=O)O)[nH]c2ccccc12 [CBK049887] | 97.5 |
| CC(=O)Nc1ccc(S(=O)(=O)Nc2nnc(CC(C)(C)C)s2)cc1 [CBK049910] | 87.7 |
| COc1ccc(OC)c(-c2cc(C(=O)O)c(C)s2)c1 [CBK049922] | 96.5 |
| O=C(CC1SC(NC2CC3C=CC2C3)=NC1=O)NCc1ccccc1 (centres unmarked) [CBK049940] | 87.1 |
| O=S(=O)(Cc1cc(Cl)ccc1C(F)(F)F)c1cc2c(N3CCNCC3)nccc2s1 [CBK049960C] | 115 |
| COC(=O)c1sc2ncccc2c1NS(=O)(=O)c1ccc(C(F)(F)F)cc1[N+](=O)[O-] [CBK049969] | 95.4 |
| COC(=O)c1sc2ncccc2c1NS(=O)(=O)c1cc(Br)ccc1OC [CBK049971] | 91.9 |
| Cc1ccc(S(=O)(=O)Nc2c(C(=O)O)sc3ncccc23)cc1[N+](=O)[O-] [CBK049983] | 91.6 |
| COc1ccc(S(=O)(=O)Nc2c(C(=O)N3CCOCC3)sc3ncccc23)cc1OC [CBK050005] | 108 |
| CCc1nnc(NS(=O)(=O)c2ccc(NC(=S)Nc3ccc(F)cc3)cc2)s1 [CBK050037] | 89.7 |
| CN1CCN(C(=O)c2[nH]c3ccccc3c2NS(=O)(=O)/C=C/c2ccccc2)CC1 [CBK050047] | 106 |
| Cc1noc(C)c1S(=O)(=O)Nc1c(C(=O)N2CCN(C)CC2)[nH]c2ccccc12 [CBK050057] | 98.9 |
| Cc1ccc(S(=O)(=O)Nc2c(C(=O)N3CCOCC3)[nH]c3ccccc23)cc1 [CBK050066] | 88.7 |

| Compound | viability at 28.5 h, 10 µM [%] |
| --- | --- |
| O=C(c1[nH]c2ccccc2c1NS(=O)(=O)Cc1ccccc1)N1CCOCC1 [CBK050067] | 99.5 |
| Cc1c(Cl)cccc1S(=O)(=O)Nc1c(C(=O)N2CCOCC2)[nH]c2ccccc12 [CBK050076] | 109 |
| O=C(Nc1ccc(F)cc1)c1[nH]c2ccccc2c1NS(=O)(=O)c1ccc(C(F)(F)F)cc1[N+](=O)[O-] [CBK050090] | 90.1 |
| O=C(Nc1ccc(F)cc1)c1[nH]c2ccccc2c1NS(=O)(=O)c1cc(Cl)sc1Cl [CBK050094] | 95 |
| Cc1noc(C)c1S(=O)(=O)Nc1c(C(=O)Nc2ccc(F)cc2)[nH]c2ccccc12 [CBK050099] | 119 |
| CCN(CC)C(=O)c1[nH]c2ccccc2c1NS(=O)(=O)Cc1ccccc1 [CBK050107] | 108 |
| CCN(CC)C(=O)c1[nH]c2ccccc2c1NS(=O)(=O)c1ccc(C(F)(F)F)cc1[N+](=O)[O-] [CBK050109] | 103 |
| CCCc1ccc(S(=O)(=O)Nc2c(C(=O)N(CC)CC)[nH]c3ccccc23)cc1 [CBK050111] | 87.1 |
| CCN(CC)C(=O)c1[nH]c2ccccc2c1NS(=O)(=O)c1c(C)noc1C [CBK050117] | 89.1 |
| COc1ccc([C@@]23CC=C(N(Cc4ccccc4)C(=O)Nc4ccc(F)c(F)c4)C[C@@H]2N(C)CC3)cc1OC [CBK050179] | 94.9 |
| COc1cccc([C@H]2CC[C@H](N(CCN(C)C)C(=O)Nc3cc(F)ccc3F)CC2)c1OC [CBK050184] | 113 |
| O=C(CCS(=O)(=O)c1ccccc1)Nc1c(F)cc(F)cc1OC1CCNCC1 [CBK050226T] | 87.4 |
| COc1cc(F)cc(OC2CCNCC2)c1NC(=O)Cc1cn(C)c2ccccc12 [CBK050245T] | 105 |
| Cc1nn(C)c(N2CCNCC2)c1NC(=O)COc1ccccc1 [CBK050249T] | 103 |
| Cc1nn(C)c(N2CCNCC2)c1NC(=O)Cc1cn(C)c2ccccc12 [CBK050254T] | 94.5 |
| Cc1nn(C)c(N2CCNCC2)c1NC(=O)CN(C)C(=O)c1ccccc1 [CBK050255T] | 109 |
| CSc1nc(NC(=O)CCCc2ccccc2)cc(N2CCNCC2)n1 [CBK050258T] | 111 |
| COc1ccc(CCCC(=O)Nc2cc(N3CCNCC3)nc(SC)n2)cc1OC [CBK050261T] | 101 |
| CSc1nc(NC(=O)Cc2c[nH]c3ccccc23)cc(N2CCNCC2)n1 [CBK050265T] | 84.4 |
| CSc1nc(NC(=O)c2ccccc2)cc(N2CCNCC2)n1 [CBK050266T] | 93.6 |
| O=C(Nc1c(F)cc(F)cc1OC1CCNCC1)c1ccnc2ccccc12 [CBK050277T] | 94.9 |
| CCOc1ccsc1C(=O)Nc1c(OC)cc(F)cc1OC1CCNCC1 [CBK050292T] | 94.3 |
| COc1cc(F)cc(OC2CCNCC2)c1NC(=O)c1cnccn1 [CBK050296T] | 90.3 |
| Cc1nn(C)c(N2CCNCC2)c1NC(=O)c1cccs1 [CBK050303T] | 91.9 |
| COc1ccc(C(=O)Nc2c(C)nn(C)c2N2CCNCC2)cc1 [CBK050306T] | 94.5 |

Same assay, conditions: human, hela cells, % viability, bulk resorufin, single well

| Compound | viability at 28.5 h, 10 µM [%] |
| --- | --- |
| CN(C)C(=O)c1ccc(Cn2nc(C(=O)Nc3nccs3)c3ccccc32)cc1 [CBK047701] | 95.4 |
| O=C(NC1CC1)c1nn(Cc2ccc(S(=O)(=O)N3CCCCC3)cc2)c2ccccc12 [CBK047820] | 106 |
| Cc1ccc(Cn2nc(C(=O)NCCc3c[nH]c4ccccc34)c3ccccc32)cc1 [CBK047830] | 98.7 |
| Cc1ccc(Cn2nc(C(=O)NCC3COc4ccccc4O3)c3ccccc32)cc1 (centres unmarked) [CBK047831] | 91.2 |
| Cc1ccc(Cn2nc(C(=O)Nc3nc4ccccc4s3)c3ccccc32)cc1 [CBK047837] | 92.4 |
| Cc1ccc(Cn2nc(C(=O)Nc3cc(C)nn3C)c3ccccc32)cc1 [CBK047842] | 77.9 |
| Cc1ccc(Cn2nc(C(=O)Nc3cc(C)on3)c3ccccc32)cc1 [CBK047844] | 98.7 |
| Cc1ccc(Cn2nc(C(=O)Nc3ccc4c(c3)OCO4)c3ccccc32)cc1 [CBK047847] | 87 |

From PMC12040169 (PLOS Biology, 2025)
